± gives the uncertainty stated by the source.
Assay: xn = mol fraction of the nth substance listed

CCCCCCCCCCCC + CCCCCC
Conditions | viscosity [mPa·s]
293.15 K, 100 kPa, x2 = 0.0986 | 1.294 ± 0.016
293.15 K, 100 kPa, x2 = 0.2 | 1.18 ± 0.01
293.15 K, 100 kPa, x2 = 0.2024 | 1.137 ± 0.014
293.15 K, 100 kPa, x2 = 0.2991 | 1.003 ± 0.012
293.15 K, 100 kPa, x2 = 0.4 | 0.89 ± 0.02
293.15 K, 100 kPa, x2 = 0.4003 | 0.864 ± 0.011
293.15 K, 100 kPa, x2 = 0.5036 | 0.746 ± 0.009
293.15 K, 100 kPa, x2 = 0.6 | 0.67 ± 0.01
293.15 K, 100 kPa, x2 = 0.6025 | 0.635 ± 0.008
293.15 K, 100 kPa, x2 = 0.7016 | 0.538 ± 0.007
293.15 K, 100 kPa, x2 = 0.8 | 0.47 ± 0.01
293.15 K, 100 kPa, x2 = 0.8003 | 0.453 ± 0.006
293.15 K, 100 kPa, x2 = 0.899 | 0.382 ± 0.005
298.1 K, 100 kPa, x2 = 0.5 | 0.719 ± 0.029
298.15 K, 100 kPa, x2 = 0.0986 | 1.188 ± 0.015
298.15 K, 100 kPa, x2 = 0.2024 | 1.049 ± 0.013
298.15 K, 100 kPa, x2 = 0.2991 | 0.929 ± 0.012
298.15 K, 100 kPa, x2 = 0.4003 | 0.803 ± 0.01
298.15 K, 100 kPa, x2 = 0.5036 | 0.697 ± 0.009
298.15 K, 100 kPa, x2 = 0.6025 | 0.596 ± 0.007
298.15 K, 100 kPa, x2 = 0.7016 | 0.508 ± 0.006
298.15 K, 100 kPa, x2 = 0.8003 | 0.429 ± 0.005
298.15 K, 100 kPa, x2 = 0.899 | 0.363 ± 0.005
298.15 K, 101 kPa, x1 = 0.1924 | 0.4343 ± 0.01
298.15 K, 101 kPa, x1 = 0.4248 | 0.6351 ± 0.012
298.15 K, 101 kPa, x1 = 0.605 | 0.8243 ± 0.013
298.15 K, 101 kPa, x1 = 0.8064 | 1.067 ± 0.013
298.15 K, 101.33 kPa, x1 = 0.0232 | 0.3154 ± 0.0036
298.15 K, 101.33 kPa, x1 = 0.0783 | 0.3506 ± 0.0039
298.15 K, 101.33 kPa, x1 = 0.1615 | 0.4067 ± 0.0044
298.15 K, 101.33 kPa, x1 = 0.1736 | 0.4183 ± 0.0045
298.15 K, 101.33 kPa, x1 = 0.3209 | 0.5387 ± 0.0056
298.15 K, 101.33 kPa, x1 = 0.411 | 0.6213 ± 0.0064
298.15 K, 101.33 kPa, x1 = 0.6005 | 0.8244 ± 0.0082
298.15 K, 101.33 kPa, x1 = 0.6932 | 0.9294 ± 0.0092
298.15 K, 101.33 kPa, x1 = 0.8557 | 1.137 ± 0.011
298.15 K, 101.33 kPa, x1 = 0.9271 | 1.241 ± 0.012
298.15 K, 101.33 kPa, x2 = 0.1128 | 1.196 ± 0.015
298.15 K, 101.33 kPa, x2 = 0.2137 | 1.047 ± 0.013
298.15 K, 101.33 kPa, x2 = 0.3024 | 0.9328 ± 0.012
298.15 K, 101.33 kPa, x2 = 0.4043 | 0.8164 ± 0.011
298.15 K, 101.33 kPa, x2 = 0.5067 | 0.7076 ± 0.0095
298.15 K, 101.33 kPa, x2 = 0.6062 | 0.6105 ± 0.0084
298.15 K, 101.33 kPa, x2 = 0.7222 | 0.5009 ± 0.0072
298.15 K, 101.33 kPa, x2 = 0.8039 | 0.4331 ± 0.0064
298.15 K, 101.33 kPa, x2 = 0.9037 | 0.3631 ± 0.0057
298.27 K, 101.3 kPa, x1 = 0.4998 | 0.7168 ± 0.0088
298.47 K, 101.3 kPa, x1 = 0.2499 | 0.4774 ± 0.0059
298.47 K, 101.3 kPa, x1 = 0.7481 | 1.002 ± 0.012
303.15 K, 100 kPa, x2 = 0.0986 | 1.095 ± 0.014
303.15 K, 100 kPa, x2 = 0.2024 | 0.971 ± 0.012
303.15 K, 100 kPa, x2 = 0.2991 | 0.864 ± 0.011
303.15 K, 100 kPa, x2 = 0.4003 | 0.75 ± 0.009
303.15 K, 100 kPa, x2 = 0.5036 | 0.653 ± 0.008
303.15 K, 100 kPa, x2 = 0.6025 | 0.561 ± 0.007
303.15 K, 100 kPa, x2 = 0.7016 | 0.479 ± 0.006
303.15 K, 100 kPa, x2 = 0.8003 | 0.407 ± 0.005
303.15 K, 100 kPa, x2 = 0.899 | 0.352 ± 0.004
303.57 K, 101.3 kPa, x1 = 0.7481 | 0.9319 ± 0.011
303.58 K, 101.3 kPa, x1 = 0.2499 | 0.4512 ± 0.0056
308.12 K, 101.3 kPa, x1 = 0.7481 | 0.8716 ± 0.011
308.15 K, 100 kPa, x2 = 0.0986 | 1.013 ± 0.013
308.15 K, 100 kPa, x2 = 0.2024 | 0.902 ± 0.011
308.15 K, 100 kPa, x2 = 0.2991 | 0.805 ± 0.01
308.15 K, 100 kPa, x2 = 0.4003 | 0.702 ± 0.009
308.15 K, 100 kPa, x2 = 0.5036 | 0.613 ± 0.008
308.15 K, 100 kPa, x2 = 0.6025 | 0.529 ± 0.007
308.15 K, 100 kPa, x2 = 0.7016 | 0.453 ± 0.006
308.15 K, 100 kPa, x2 = 0.8003 | 0.388 ± 0.005
308.15 K, 100 kPa, x2 = 0.899 | 0.334 ± 0.004
308.15 K, 101.33 kPa, x1 = 0.0232 | 0.2875 ± 0.0034
308.15 K, 101.33 kPa, x1 = 0.0783 | 0.3133 ± 0.0036
308.15 K, 101.33 kPa, x1 = 0.1615 | 0.3656 ± 0.0041
308.15 K, 101.33 kPa, x1 = 0.1736 | 0.3742 ± 0.0042
308.15 K, 101.33 kPa, x1 = 0.3209 | 0.4799 ± 0.0051
308.15 K, 101.33 kPa, x1 = 0.411 | 0.5504 ± 0.0057
308.15 K, 101.33 kPa, x1 = 0.6005 | 0.7191 ± 0.0073
308.15 K, 101.33 kPa, x1 = 0.8557 | 0.9709 ± 0.0097
308.15 K, 101.33 kPa, x1 = 0.9271 | 1.054 ± 0.01
308.18 K, 101.3 kPa, x1 = 0.4998 | 0.6313 ± 0.0077
308.23 K, 101.3 kPa, x1 = 0.2499 | 0.4292 ± 0.0053
311.42 K, 101.3 kPa, x1 = 0.2499 | 0.4144 ± 0.0051
313.15 K, 100 kPa, x2 = 0.0986 | 0.941 ± 0.012
313.15 K, 100 kPa, x2 = 0.2 | 0.87 ± 0.01
313.15 K, 100 kPa, x2 = 0.2024 | 0.841 ± 0.01
313.15 K, 100 kPa, x2 = 0.2991 | 0.753 ± 0.009
313.15 K, 100 kPa, x2 = 0.4 | 0.69 ± 0.01
313.15 K, 100 kPa, x2 = 0.4003 | 0.658 ± 0.008
313.15 K, 100 kPa, x2 = 0.5036 | 0.578 ± 0.007
313.15 K, 100 kPa, x2 = 0.6 | 0.53 ± 0.01
313.15 K, 100 kPa, x2 = 0.6025 | 0.5 ± 0.006
313.15 K, 100 kPa, x2 = 0.7016 | 0.43 ± 0.005
313.15 K, 100 kPa, x2 = 0.8 | 0.38 ± 0.01
313.15 K, 100 kPa, x2 = 0.8003 | 0.37 ± 0.005
313.15 K, 100 kPa, x2 = 0.899 | 0.317 ± 0.004
318.15 K, 100 kPa, x2 = 0.0986 | 0.876 ± 0.011
318.15 K, 100 kPa, x2 = 0.2024 | 0.786 ± 0.01
318.15 K, 100 kPa, x2 = 0.2991 | 0.706 ± 0.009
318.15 K, 100 kPa, x2 = 0.4003 | 0.619 ± 0.008
318.15 K, 100 kPa, x2 = 0.5036 | 0.545 ± 0.007
318.15 K, 100 kPa, x2 = 0.6025 | 0.474 ± 0.006
318.15 K, 100 kPa, x2 = 0.7016 | 0.409 ± 0.005
318.15 K, 100 kPa, x2 = 0.8003 | 0.359 ± 0.005
318.15 K, 100 kPa, x2 = 0.899 | 0.302 ± 0.004
322.68 K, 101.3 kPa, x1 = 0.4998 | 0.5301 ± 0.0065
323.08 K, 101.3 kPa, x1 = 0.2499 | 0.3672 ± 0.0045
323.15 K, 100 kPa, x2 = 0.0986 | 0.819 ± 0.01
323.15 K, 100 kPa, x2 = 0.2024 | 0.736 ± 0.009
323.15 K, 100 kPa, x2 = 0.2991 | 0.663 ± 0.008
323.15 K, 100 kPa, x2 = 0.4003 | 0.584 ± 0.007
323.15 K, 100 kPa, x2 = 0.5036 | 0.515 ± 0.006
323.15 K, 100 kPa, x2 = 0.6025 | 0.45 ± 0.006
323.15 K, 100 kPa, x2 = 0.7016 | 0.389 ± 0.005
323.15 K, 100 kPa, x2 = 0.8003 | 0.342 ± 0.004
323.15 K, 100 kPa, x2 = 0.899 | 0.287 ± 0.004

Reference: the CheMixHub viscosity set
